“And” between values parts separate entries of the source, which are not always exact repeats. Identical values can stand only once.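 Grown in 96-well plates, cells were treated for 48 hours with each compound at five concentrations. Insufficient inhibition: endpoint recorded as highest concentration tested. Abbreviation: GI50, concentration required for 50% inhibition of growth. The concentration for full growth arrest is given as TGI.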
Tests used:
Test in all cases: NCI tumour cell line growth inhibition, 48 h
HT29 colon = test system: HT29 colon
HCT-116 colon = test system: HCT-116 colon
RXF 393 renal = test system: RXF 393 renal
SW-620 colon = test system: SW-620 colon
T-47D breast = test system: T-47D breast
NCI-H522 lung = test system: NCI-H522 lung
K-562 leukemia = test system: K-562 leukemia
COLO 205 colon = test system: COLO 205 colon
U251 CNS = test system: U251 CNS
SN12C renal = test system: SN12C renal
MCF7 breast = test system: MCF7 breast
SR leukemia = test system: SR leukemia
UACC-257 melanoma = test system: UACC-257 melanoma
PC-3 prostate = test system: PC-3 prostate
SK-MEL-5 melanoma = test system: SK-MEL-5 melanoma
OVCAR-8 ovarian = test system: OVCAR-8 ovarian
786-0 renal = test system: 786-0 renal
NCI-H226 lung = test system: NCI-H226 lung
SK-OV-3 ovarian = test system: SK-OV-3 ovarian
KM12 colon = test system: KM12 colon
M14 melanoma = test system: M14 melanoma
LOX IMVI melanoma = test system: LOX IMVI melanoma
CAKI-1 renal = test system: CAKI-1 renal
MDA-MB-435 = test system: MDA-MB-435
MDA-MB-231 breast = test system: MDA-MB-231 breast
SK-MEL-2 melanoma = test system: SK-MEL-2 melanoma
UACC-62 melanoma = test system: UACC-62 melanoma
RPMI-8226 leukemia = test system: RPMI-8226 leukemia
BT-549 breast = test system: BT-549 breast
SF-268 CNS = test system: SF-268 CNS
CCRF-CEM leukemia = test system: CCRF-CEM leukemia
MOLT-4 leukemia = test system: MOLT-4 leukemia
A549 NSCLC = test system: A549 NSCLC
NCI-H23 lung = test system: NCI-H23 lung
ACHN renal = test system: ACHN renal
SNB-75 CNS = test system: SNB-75 CNS
MALME-3M melanoma = test system: MALME-3M melanoma
SF-295 CNS = test system: SF-295 CNS
HS 578T breast = test system: HS 578T breast
NCI/ADR-RES ovarian = test system: NCI/ADR-RES ovarian
NCI-H460 lung = test system: NCI-H460 lung
EKVX NSCLC = test system: EKVX NSCLC
TK-10 renal = test system: TK-10 renal
OVCAR-5 ovarian = test system: OVCAR-5 ovarian
HCC-2998 colon = test system: HCC-2998 colon
HOP-92 NSCLC = test system: HOP-92 NSCLC
SK-MEL-28 melanoma = test system: SK-MEL-28 melanoma
UO-31 renal = test system: UO-31 renal
IGROV1 ovarian = test system: IGROV1 ovarian
SNB-19 CNS = test system: SNB-19 CNS
OVCAR-3 ovarian = test system: OVCAR-3 ovarian
HL-60(TB) leukemia = test system: HL-60(TB) leukemia
HCT-15 colon = test system: HCT-15 colon
SF-539 CNS = test system: SF-539 CNS
A498 renal = test system: A498 renal
OVCAR-4 ovarian = test system: OVCAR-4 ovarian

COc1ccc2c(c1)C(=O)c1c-2n(CCCN=[N+]=[N-])c(=O)c2cc([N+](=O)[O-])ccc12
GI50 (HT29 colon): 2.82 µM
TGI (HT29 colon): > 100 µM
TGI (HCT-116 colon): 9.11 µM
GI50 (RXF 393 renal): 0.00139 µM
GI50 (SW-620 colon): < 0.001 µM
TGI (SW-620 colon): 0.783 µM
GI50 (T-47D breast): 1.57 µM
TGI (T-47D breast): > 100 µM
GI50 (NCI-H522 lung): < 0.001 µM
TGI (NCI-H522 lung): 0.657 µM
GI50 (K-562 leukemia): 0.0782 µM and 0.0653 µM
TGI (K-562 leukemia): 16.3 µM
TGI (COLO 205 colon): > 100 µM
GI50 (U251 CNS): 0.16 µM
GI50 (SN12C renal): 0.314 µM
TGI (SN12C renal): 2.01 µM
GI50 (MCF7 breast): < 0.001 µM
TGI (MCF7 breast): 4.83 µM
TGI (SR leukemia): 13.4 µM
TGI (UACC-257 melanoma): > 100 µM
TGI (PC-3 prostate): > 100 µM
GI50 (SK-MEL-5 melanoma): 0.0106 µM
TGI (SK-MEL-5 melanoma): 0.0849 µM
TGI (OVCAR-8 ovarian): > 100 µM
TGI (786-0 renal): 0.708 µM
GI50 (NCI-H226 lung): 0.268 µM
TGI (NCI-H226 lung): 0.874 µM
GI50 (SK-OV-3 ovarian): 7.14 µM
TGI (SK-OV-3 ovarian): 28.1 µM
GI50 (KM12 colon): 0.558 µM and 3.4 µM
TGI (KM12 colon): > 100 µM
TGI (M14 melanoma): 1.3 µM
GI50 (LOX IMVI melanoma): 0.0707 µM and 0.177 µM
TGI (LOX IMVI melanoma): 0.737 µM
GI50 (CAKI-1 renal): 0.0018 µM
TGI (CAKI-1 renal): 0.00531 µM
GI50 (MDA-MB-435): 0.252 µM and 0.491 µM
TGI (MDA-MB-435): > 100 µM
GI50 (MDA-MB-231 breast): 33.3 µM
TGI (MDA-MB-231 breast): > 100 µM
GI50 (SK-MEL-2 melanoma): 14.5 µM
TGI (SK-MEL-2 melanoma): 39.1 µM
GI50 (UACC-62 melanoma): 0.225 µM
TGI (UACC-62 melanoma): 0.991 µM
GI50 (RPMI-8226 leukemia): 0.0128 µM and 0.0101 µM
TGI (RPMI-8226 leukemia): 0.264 µM and 1.35 µM
TGI (BT-549 breast): 1.3 µM
GI50 (SF-268 CNS): < 0.001 µM
GI50 (CCRF-CEM leukemia): < 0.001 µM
TGI (CCRF-CEM leukemia): 0.0275 µM and 0.0272 µM
GI50 (MOLT-4 leukemia): < 0.001 µM
TGI (A549 NSCLC): > 100 µM
GI50 (NCI-H23 lung): 0.244 µM
TGI (NCI-H23 lung): 18 µM
GI50 (ACHN renal): 0.0443 µM
GI50 (SNB-75 CNS): 3.47 µM
TGI (SNB-75 CNS): 20.5 µM
GI50 (MALME-3M melanoma): 0.422 µM
TGI (MALME-3M melanoma): 9.88 µM
GI50 (SF-295 CNS): 0.033 µM
TGI (SF-295 CNS): 0.222 µM and 0.529 µM
GI50 (HS 578T breast): 16.2 µM
TGI (HS 578T breast): > 100 µM
TGI (NCI/ADR-RES ovarian): > 100 µM
TGI (NCI-H460 lung): 0.0469 µM
TGI (EKVX NSCLC): > 100 µM
GI50 (TK-10 renal): 15.2 µM
TGI (TK-10 renal): 37.3 µM
TGI (OVCAR-5 ovarian): > 100 µM
GI50 (HCC-2998 colon): 0.013 µM
GI50 (HOP-92 NSCLC): 0.0646 µM
GI50 (SK-MEL-28 melanoma): 15.1 µM
TGI (SK-MEL-28 melanoma): > 100 µM
GI50 (UO-31 renal): < 0.001 µM
TGI (UO-31 renal): 2.22 µM

COc1cc(/C=C2\C(=O)Nc3ccc(Cl)cc32)cc(OC)c1OC
GI50 (HT29 colon): 6.71 µM
TGI (HT29 colon): > 100 µM
GI50 (RXF 393 renal): 1.82 µM
TGI (RXF 393 renal): 8.22 µM
GI50 (SW-620 colon): 29.9 µM
TGI (SW-620 colon): > 100 µM
GI50 (T-47D breast): > 100 µM
TGI (T-47D breast): > 100 µM
GI50 (NCI-H522 lung): 13.7 µM
TGI (NCI-H522 lung): > 100 µM
GI50 (K-562 leukemia): 4.44 µM
TGI (K-562 leukemia): > 100 µM
GI50 (IGROV1 ovarian): 4.51 µM
TGI (IGROV1 ovarian): > 100 µM
GI50 (COLO 205 colon): 8.01 µM
TGI (COLO 205 colon): > 100 µM
GI50 (U251 CNS): 13.1 µM
TGI (U251 CNS): 32.4 µM
GI50 (SN12C renal): 26.5 µM
TGI (SN12C renal): > 100 µM
GI50 (MCF7 breast): 26 µM
TGI (MCF7 breast): > 100 µM
GI50 (SR leukemia): 3.29 µM
TGI (SR leukemia): > 100 µM
GI50 (UACC-257 melanoma): 29.5 µM
TGI (UACC-257 melanoma): > 100 µM
GI50 (PC-3 prostate): 2.93 µM
TGI (PC-3 prostate): > 100 µM
GI50 (SK-MEL-5 melanoma): 12.7 µM
TGI (SK-MEL-5 melanoma): > 100 µM
GI50 (OVCAR-8 ovarian): 22.9 µM
TGI (OVCAR-8 ovarian): > 100 µM
GI50 (NCI-H226 lung): 51.3 µM
TGI (NCI-H226 lung): > 100 µM
GI50 (SK-OV-3 ovarian): 13.4 µM
TGI (SK-OV-3 ovarian): 33.8 µM
GI50 (KM12 colon): 4.07 µM
TGI (KM12 colon): > 100 µM
GI50 (LOX IMVI melanoma): 21.9 µM
TGI (LOX IMVI melanoma): > 100 µM
GI50 (CAKI-1 renal): 23.6 µM
TGI (CAKI-1 renal): > 100 µM
GI50 (MDA-MB-435): 3.26 µM
TGI (MDA-MB-435): 9.37 µM
GI50 (SNB-19 CNS): 24.8 µM
TGI (SNB-19 CNS): > 100 µM
GI50 (MDA-MB-231 breast): 11.4 µM
TGI (MDA-MB-231 breast): 37.3 µM
GI50 (SK-MEL-2 melanoma): 31.9 µM
TGI (SK-MEL-2 melanoma): > 100 µM
GI50 (UACC-62 melanoma): 16.3 µM
TGI (UACC-62 melanoma): > 100 µM
GI50 (OVCAR-3 ovarian): 19.6 µM
TGI (OVCAR-3 ovarian): > 100 µM
GI50 (RPMI-8226 leukemia): 3.9 µM
TGI (RPMI-8226 leukemia): > 100 µM
GI50 (BT-549 breast): 22.3 µM
TGI (BT-549 breast): 92.3 µM
GI50 (HL-60(TB) leukemia): 13.4 µM
TGI (HL-60(TB) leukemia): > 100 µM
GI50 (SF-268 CNS): 8.99 µM
TGI (SF-268 CNS): > 100 µM
GI50 (CCRF-CEM leukemia): 7.28 µM
TGI (CCRF-CEM leukemia): > 100 µM
GI50 (MOLT-4 leukemia): 75.1 µM
TGI (MOLT-4 leukemia): > 100 µM
GI50 (A549 NSCLC): 41.2 µM
TGI (A549 NSCLC): > 100 µM
GI50 (NCI-H23 lung): 12.9 µM
TGI (NCI-H23 lung): 39.2 µM
GI50 (HCT-15 colon): 9.16 µM
TGI (HCT-15 colon): > 100 µM
GI50 (ACHN renal): 23.5 µM
TGI (ACHN renal): > 100 µM
GI50 (SNB-75 CNS): 7 µM
TGI (SNB-75 CNS): 21.8 µM
GI50 (MALME-3M melanoma): 32 µM
TGI (MALME-3M melanoma): > 100 µM
GI50 (SF-295 CNS): 78.2 µM
TGI (SF-295 CNS): > 100 µM
GI50 (HS 578T breast): 16.5 µM
TGI (HS 578T breast): > 100 µM
GI50 (NCI/ADR-RES ovarian): 7.29 µM
TGI (NCI/ADR-RES ovarian): 59.3 µM
GI50 (NCI-H460 lung): 24.2 µM
TGI (NCI-H460 lung): > 100 µM
GI50 (EKVX NSCLC): 13.8 µM
TGI (EKVX NSCLC): > 100 µM
GI50 (SF-539 CNS): 16.8 µM
TGI (SF-539 CNS): 45.6 µM
GI50 (TK-10 renal): 24 µM
TGI (TK-10 renal): 78.3 µM
GI50 (OVCAR-5 ovarian): 21.2 µM
TGI (OVCAR-5 ovarian): 62.3 µM
GI50 (HCC-2998 colon): 5.82 µM
TGI (HCC-2998 colon): 61.2 µM
GI50 (HOP-92 NSCLC): 3.39 µM
TGI (HOP-92 NSCLC): 22.9 µM
GI50 (SK-MEL-28 melanoma): > 100 µM
TGI (SK-MEL-28 melanoma): > 100 µM
GI50 (A498 renal): 23.2 µM
TGI (A498 renal): 72.4 µM
GI50 (UO-31 renal): 16 µM
TGI (UO-31 renal): > 100 µM
GI50 (OVCAR-4 ovarian): 43.9 µM
TGI (OVCAR-4 ovarian): > 100 µM
